Source: US20090018118A1, “HETEROCYCLIC COMPOUNDS” (priority 2005, published 2009)
Counter-ions that a name gives are not always drawn. Like-named read-outs stand apart in the source and are kept apart here.

Test system: cholesterol biosynthesis in HepG2 cells
Assay: Metabolic labeling of HepG2 cells with [3H]acetate; radio-HPLC sterol profile (inhibition of cholesterol biosynthesis)
Format: cell-based, human
Conditions: HepG2; for activity at 10 µM: Homo sapiens, 24 h, Table I, sterol level normalized to normal medium (1.00), mean of 4 experiments; for activity at 10 µM / FF-MAS / cholesterol / desmosterol / lanosterol / lathosterol / zymosterol+7-dehydrocholesterol: 10 μM compound; for FF-MAS / cholesterol / desmosterol / lanosterol / lathosterol / zymosterol+7-dehydrocholesterol: Table II (arranged by sterol profile), normalized to normal medium (1.00); for all sterol levels (in words): relative to normal medium (unity)
Description: In accordance with the aims of the invention, the effect of the novel compounds on inhibition of cholesterol biosynthesis is assessed. An ex vivo method of metabolic labeling of immortal human hepatocytes is employed. The radioactively labeled early precursor of cholesterol [3H]acetate is added to cells with or without addition of an active new compound.
An ex vivo method of metabolic labeling of immortal human hepatocytes is employed. The radioactively labeled early precursor of cholesterol [3H]acetate is added to cells with or without addition of an active compound.
Cell culture incubation with potential inhibitors of cholesterol biosynthesis and statins Human hepatoma cell line (HepG2-ATCC No. HB-8065) is split in the recommended ratio (1:2-3) into 75 cm^2 cell flasks using two flasks per experimental condition. Cells are incubated at 37° C. with 5% CO2 in Dulbeco's modified Eagle medium (DMEM high (Sigma)) containing 5% calf serum (Sigma) and 1% L-glutamine (Sigma). After 24-hours-culturing in the growth medium, the medium is replaced with the one supplemented with 10 μM concentration of a LK compound, potential inhibitor of cholesterol biosynthesis. 10 μM solution of atorvastatin, inhibitor of HMG-CoA reductase, serves as a positive control.
After 24 hours the growth medium is changed and [^3H]acetate (NEN™ Life Science Products) added in a concentration of 40 μCi per ml of the medium (400 μCi per flask). After 4 hours cells are harvested using 2 ml of trypsin (Sigma) and the cell pellet is resuspended in 1 ml of distilled water. Cells are homogenized using the freeze and thaw method. From cell homogenate sterols are extracted and protein concentration determined using the Bio-Rad reagent.
Homogenates are transferred into 4 ml glass vial and sterols are extracted in 3 ml of extraction solution (75% n-heptane: 25% isopropanol (vol./vol.)) with ergosterol as an internal standard. For better extraction 100 μl of 0.3M NaH2PO4 (pH=1.0) is added. Closed vials are vigorously shaken (1800 rpm) for 2 hours. After extraction procedure vials are centrifuged (2000 g, 10 min) and the organic phase is transferred to fresh conical glass tubes. Extraction procedure is repeated using 1 ml of extraction solution for 15 min. Organic phases are pooled. Primary extracts are dried in vacuum centrifuge, redissolved in 3 ml of n-heptane, and incubated for 10 min at room temperature with mild shaking. After centrifugation (10 min, 2000 g) extracts are transferred into fresh glass tubes and stored in dark and cold.
The organic phase is dried, reconstituted in mobile phase for reversed phase HPLC separation and loaded onto a-HPLC column, Prism-RPN, 5 μm, 250×4,6 mm running in 100% acetonitrile at 1.00 ml/min at 40° C. temperature. Scintillation liquid is added after UV detection at 30 ml/h, at room temperature, to evaluate tritium labeled sterols on a radio detector.
Sterols are determined by comparing the eluted peaks with runs of commercial standards of lanosterol, ergosterol, desmosterol, zymosterol, 7-dehydrocholesterol, lathosterol and cholesterol or laboratory standards (FF-MAS-4,4-Dimethylcholesta-8(9),14,24-triene-3β-ol- and T-MAS-4,4-Dimethylcholesta8(9),24,diene-3,6-ol, Laboratory of Reproductive Biology, The Juliane Marie Center for Children, Women and Reproduction, University Hospital of Copenhagen, DK-2100 Copenhagen, Denmark). Results were normalized on ergosterol quantity and protein concentration. Results are presented as a mean from 4 separated experiments.
The influence of a 10 μM solution of novel LK-substances on cholesterol biosynthesis in the assay on HepG2 cells is presented in Table I. Compounds are arranged according to the building blocks, three of them are 2-pyridineethanols, 2-pyridineethylpiperazines and pyridinemethylpiperazines.
Normal medium pertains to cell cultures without a compound of the invention. Its sterol levels were used for normalization. 10 μM solution of atorvastatin serves as a positive control.

[1] = read-out: zymosterol+7-dehydrocholesterol

Row | Structure (SMILES) | activity at 10 µM (read-out: FF-MAS) | activity at 10 µM (read-out: cholesterol) | activity at 10 µM (read-out: desmosterol) | activity at 10 µM (read-out: lanosterol) | activity at 10 µM (read-out: lathosterol) | activity at 10 µM [1] | FF-MAS | cholesterol | desmosterol | lanosterol | lathosterol | zymosterol+7-dehydrocholesterol | sterol profile (in words) (10 μM, preferred profile: lowered cholesterol, no accumulation of lanosterol and post-lanosterol intermediates) | FF-MAS accumulation (in words) (10 μM) | all sterol levels (in words) (10 μM)
1 | OC(CN1CCN(CCc2ccccc2)CC1)c1cccnc1 (stereo not shown) [LK-980, 2-(4-Phenethylpiperazine-1-yl)-1-(pyridine3-yl)-1-ethanol trihydrobromide] | 254% | 5% | 0% | 96% | 49% | 102% | 2.54 | 0.05 | 0.00 | 0.96 | 0.49 | 1.02 |  |  | 
2 | c1ccc(CCN2CCN(CCc3cccnc3)CC2)cc1 [LK-9100, 1-Phenethyl-4-(2-(pyridine-3-yl)ethyl)piperazine trihydrobromide] | 241% | 0% | 0% | 83% | 30% | 74% | 2.41 | 0.00 | 0.00 | 0.83 | 0.30 | 0.74 |  |  | 
3 | O=C(Cc1cccnc1)N1CCN(CCc2ccccc2)CC1 [LK-9101B, 1-(4-Phenethylpiperazin-1-yl)-2-(pyridine-3-yl)ethanone] | 136% | 12% | 10% | 94% | 54% | 155% | 1.36 | 0.12 | 0.10 | 0.94 | 0.54 | 1.55 |  |  | 
4 | COc1ccc(CN2CCN(CCc3ccccc3)CC2)cn1 [LK-9106, 1-((6-Methoxypyridin-3-yl)methyl)-4-phenethylpiperazine trihydrobromide] | 200% | 0% | 0% | 52% | 31% | 46% | 2.00 | 0.00 | 0.00 | 0.52 | 0.31 | 0.46 |  |  | 
5 | FC(F)(F)c1ccc(CN2CCN(CCc3ccccc3)CC2)cn1 [LK-9107, 1-Phenethyl-4-((6(trifluoromethyl)pyridine-3-yl)methyl)piperazine trihydrobromide] | 129% | 0% | 0% | 36% | 11% | 20% | 1.29 | 0.00 | 0.00 | 0.36 | 0.11 | 0.20 | meets these criteria in considerable extent |  | 
6 | c1ccc(CCN2CCN(Cc3cccnc3)CC2)cc1 [LK-9108, 1-Phenethyl-4-(pyridine-3-ylmethyl)piperazine trihydrobromide] | 310% | 0% | 0% | 110% | 74% | 140% | 3.10 | 0.00 | 0.00 | 1.10 | 0.74 | 1.40 |  |  | 
7 | c1ccc(CCN2CCN(Cc3ccc(N4CCOCC4)nc3)CC2)cc1 [LK-9109B, 4-(5-((4-Phenethylpiperazin-1-yl)methyl)pyridine-2-yl)morpholine] | 650% | 0% | 29% | 95% | 9% | 100% | 6.50 | 0.00 | 0.29 | 0.95 | 0.09 | 1.00 |  | notably accumulate FF-MAS | 
8 | OC(CN1CCN(CCc2ccccc2)CC1)c1ccncc1 (stereo not shown) [LK-9110B, 2-(4-Phenethylpiperazine-1-yl)-1-(pyridine-4-yl)ethanol] | 374% | 0% | 17% | 96% | 78% | 137% | 3.74 | 0.00 | 0.17 | 0.96 | 0.78 | 1.37 |  |  | 
9 | FC(F)(F)c1cnc(N2CCCN(CCc3ccccc3)CC2)c(Cl)c1 [LK-9115, 1-(3-Chloro-5-(trifluoromethyl)pyridine-2-yl)-4-phenethyl-1,4-diazepane trihydrobromide] | 442% | 0% | 0% | 84% | 21% | 91% | 4.42 | 0.00 | 0.00 | 0.84 | 0.21 | 0.91 |  |  | 
10 | c1ccc(CCN2CCN(CCc3ccncc3)CC2)cc1 [LK-9118B, 1-Phenethyl-4-(2-(pyridine-4-yl)ethyl)piperazine] | 350% | 0% | 47% | 146% | 23% | 90% | 3.50 | 0.00 | 0.47 | 1.46 | 0.23 | 0.90 |  |  | 
11 | Fc1ccc(CCN2CCN(CCc3ccncc3)CC2)cc1F [LK-9131, 1-(3,4-di-Fluorophenethyl)-4-(2-(pyridin-4-yl)ethyl)piperazine trihydrobromide] | 72% | 0% | 1% | 69% | 5% | 9% | 0.72 | 0.00 | 0.01 | 0.69 | 0.05 | 0.09 |  |  | reduce all sterol levels below unity
12 | Clc1ccc(CCN2CCN(CCc3ccncc3)CC2)cc1Cl [LK-9135, 1-(3,4-Dichlorophenethyl)-4-(2-(pyridin-4-yl)ethyl)piperazine trihydrobromide] | 27% | 0% | 0% | 43% | 0% | 2% | 0.27 | 0.00 | 0.00 | 0.43 | 0.00 | 0.02 |  |  | reduce all sterol levels below unity
